Experimental data published in patent publication US8008351B2, “Methods for prophylaxis or treatment of conditions associated with cortical spreading depression” (UCB Pharma GmbH, priority 2004, dated 2011).
Entries after “also recorded” stand apart in the source; their conditions may differ.

Assays:
[1] = tested on: rat model of migraine (Cortical Spreading Depression, CSD); assay: Cortical spreading depression (CSD) rat model of migraine: number of KCl-induced direct current (DC) potentials; type: in vivo, rat (Wistar); conditions: for Number of DC: n = 10, mean ± SD
Method: (§1) All animal experiments were carried out according to the National Institute of Health (NIH) guidelines for the care and use of laboratory animals, and approved by the Ethical Committee of the National Laboratory Animal Center, Kuopio, Finland. Altogether 77 adult male Wistar rats, purchased from Harlan, Netherlands, and weighing 250-350 g were used for the experiment. Animals were housed at a standard temperature (22±1° C.) and in a light-controlled environment (lights on from 7 am to 9 pm) with ad libitum access to food and water. Animals were grouped as follows: • 15 rats treated with SPM 927 (3 mg/kg; i.p.) 30 min before the CSD episode • 15 rats treated with SPM 927 (10 mg/kg; i.p.) 30 min before the CSD episode • 15 rats treated with SPM 927 (30 mg/kg; i.p.) 30 min before the CSD episode • 15 rats treated with Valproic acid (250 mg/kg; i.p.) 30 min before the CSD episode • 15 rats treated with Vehicle (2 ml/kg; i.p.) 30 min before CSD episode • 2 sham rats without CSD episode (topical NaCl application) and without any treatment Subgroups: • 10 rats to DC-potential, CBF, and blood pH, pO2, pCO2, glucose and mean arterial pressure analysis (rats killed at 30 min after CSD, brains fresh-frozen) • 5 rats to jugular vein cannulation (CGRP sampling) and dural as well as cortical CGRP immunocytochemistry (rats killed at 15 min after CSD)
Rats were anaethetized with Equithesin (3 ml/kg) and placed in a stereotactic frame. The rectal temperature was maintained at 37.0±1.0° C. with a homeothermic blanket system. A polyethylene catheter was inserted into the femoral artery in order to monitor arterial blood pressure and take blood samples for arterial pH, pO2, pCO2 and glucose. The arterial blood gases were measured with i-STAT portable clinical analyzer (I-STAT), arterial blood pressure monitored with Cardiocap II blood pressure analyzer (datex-Ohmeda, Helsinki, Finland) and blood glucose with standard glucose meter (Arkray, Japan). The measurements were taken 10 min before as well as 5 min after the CSD episode. The skin was opened by a medical incision and retracted laterally. Three skull burr holes were drilled in a row unilaterally. One was placed over the frontal cortex, the second frontoparietally and the third one parietally (FIG. 1). A laser-Doppler flow probe (Oxyflow, Oxford Optronics, UK) to monitor CBF and a non-invasive tungsten electrode for measuring direct current (DC) potential shifts were placed in the frontal and frontoparietal burr holes on the intact dura, respectively. The laser-Doppler flow probe was positioned in an area free of large pial and dural vessels to minimize a large-vessel contribution to the signal. For the DC-potential measurement, a reference electrode was fixed in the neck. CSDs were elicited unilaterally by placing a KCl-soaked (3.0 M) piece of filter paper on the parietal opening for 5 min. The KCl exposure was terminated by flushing the opening with saline and placing a dry piece of filter paper on the opening. The CBF and DC-potentials were monitored continuously starting from 5 minutes before CSD and continuing up to 30 min after the KCl exposure.
All values were calculated as mean±standard deviation (SD) and differences were considered to be statistically significant as the P<0.05 level. Statistical analysis was performed using StatsDirect statistical software. Differences among means were analyzed by using one-way analysis of variance (ANOVA). […]

[2] = tested on: Calcitonin gene-related peptide (CGRP); assay: CSD-induced CGRP release in jugular vein blood (CGRP EIA); type: in vivo, rat (Wistar); conditions: for CGRP release expressed as percent of baseline levels, 10-15 min: 10-15 min after induction of CSD; for CGRP release expressed as percent of baseline levels, 10-15 min / CGRP release expressed as percent of baseline levels, 20-25 min / CGRP release expressed as percent of baseline levels, Baseline: n = 5; for CGRP release expressed as percent of baseline levels, 20-25 min: 20-25 min after induction of CSD; for CGRP release expressed as percent of baseline levels, Baseline: baseline (before CSD)
Method: as §1
Following anesthesia (before CSD), a catheter was placed into the right jugular vein. 0.250 ml of blood was taken through the catheter for baseline measurement. For time course experiments further samples were taken at 10-15 and 20-25 min following initiation of CSD. Samples were stored in prepared Eppendorf tubes containing the protease inhibitors aprotinin (1000 KU, Bayer, Germany) and Pefabloc™ (1 mg/ml, Boehringer Mannheim, Germany), immediately cold centrifuged and stored at −80° C. The samples were acidified with trifluoroacetic acid and centrifuged at 6000 g for 20 min. The supernatant was extracted with Sep-Pak C-18 cartridges (Millipore, Waters, UK). Eluates were concentrated (dried) and dissolved in EIA buffer. CGRP concentrations were detected using a commercial CGRP EIA kit (S-3006, Bachem Distribution GmbH) according to the manufacturer's instructions.
All values were calculated as mean±standard deviation (SD) and differences were considered to be statistically significant as the P<0.05 level. Statistical analysis was performed using StatsDirect statistical software. Differences among means were analyzed by using one-way analysis of variance (ANOVA). Dunnet's post-hoc test was applied for multiple comparisons with a control group.

[3] = rat model of migraine, pre-treatment, 3 doses

Compound	Number of DC ([1]; 3 mg/kg i.p. 30 min before CSD episode)	Number of DC ([1]; 10 mg/kg i.p. 30 min before CSD episode)	Number of DC ([1]; 30 mg/kg i.p. 30 min before CSD episode)	Effect on CSD / number of CSD-induced DC-potentials (in words) [1, 3]	CGRP release expressed as percent of baseline levels, 10-15 min ([2]; 3 mg/kg i.p.) [%]	CGRP release expressed as percent of baseline levels, 20-25 min ([2]; 3 mg/kg i.p.) [%]	CGRP release expressed as percent of baseline levels, Baseline ([2]; 3 mg/kg i.p.) [%]	CGRP release expressed as percent of baseline levels, 10-15 min ([2]; 10 mg/kg i.p.) [%]	CGRP release expressed as percent of baseline levels, 20-25 min ([2]; 10 mg/kg i.p.) [%]	CGRP release expressed as percent of baseline levels, Baseline ([2]; 10 mg/kg i.p.) [%]	CGRP release expressed as percent of baseline levels, 10-15 min ([2]; 30 mg/kg i.p.) [%]	CGRP release expressed as percent of baseline levels, 20-25 min ([2]; 30 mg/kg i.p.) [%]	CGRP release expressed as percent of baseline levels, Baseline ([2]; 30 mg/kg i.p.) [%]	Effect on CSD-induced CGRP release / CGRP levels in blood (in words) [2, 3]	Number of DC ([1]; 250 mg/kg i.p. 30 min before CSD episode)	CGRP release expressed as percent of baseline levels, 10-15 min ([2]; 250 mg/kg i.p.) [%]	CGRP release expressed as percent of baseline levels, 20-25 min ([2]; 250 mg/kg i.p.) [%]	CGRP release expressed as percent of baseline levels, Baseline ([2]; 250 mg/kg i.p.) [%]
COC[C@@H](NC(C)=O)C(=O)NCc1ccccc1 [SPM 927, (R)-2-acetamide-N-benzyl-3-methoxypropionamide]	4.2 ± 0.4	3.3 ± 0.4	3.5 ± 0.6	reduces; also recorded: significant suppression	126 ± 45	35 ± 7	100 ± 0	114 ± 27	66 ± 31	100 ± 0	92 ± 53	71 ± 12	100 ± 0	reduces; also recorded: significant suppression				
CCCC(CCC)C(=O)O [Valproic acid, reference compound]															3.7 ± 0.3	56 ± 8	71 ± 15	100 ± 0
